# In patent US7485651B2, “Compounds with activity on muscarinic receptors” (Acadia Pharmaceuticals, Inc., priority 1998, dated 2009):
# Assays:
# Type in all cases: cell-based
# [1] = molecular target: T1, α-adrenergic receptor subtype 1A (Homo sapiens, UniProt P35348); test: Test against other receptors: α-adrenergic 1A
# T1 sequence (P35348 1-466): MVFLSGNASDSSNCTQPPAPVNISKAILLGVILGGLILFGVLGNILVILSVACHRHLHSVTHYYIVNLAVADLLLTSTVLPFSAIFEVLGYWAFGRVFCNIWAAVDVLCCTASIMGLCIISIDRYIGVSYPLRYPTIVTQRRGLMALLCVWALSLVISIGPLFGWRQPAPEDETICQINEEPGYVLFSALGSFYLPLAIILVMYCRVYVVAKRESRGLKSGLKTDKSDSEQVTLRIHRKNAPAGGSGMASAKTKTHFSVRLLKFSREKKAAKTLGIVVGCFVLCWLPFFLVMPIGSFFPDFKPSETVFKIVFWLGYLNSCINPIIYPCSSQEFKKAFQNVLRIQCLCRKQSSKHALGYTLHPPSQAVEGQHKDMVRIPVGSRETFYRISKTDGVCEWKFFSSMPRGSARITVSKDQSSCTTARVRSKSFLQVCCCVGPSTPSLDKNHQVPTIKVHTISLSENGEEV
# [2] = molecular target: T2, α-adrenergic receptor subtype 2A (Homo sapiens, UniProt P08913); test: Test against other receptors: α-adrenergic 2A
# T2 sequence (P08913 1-465): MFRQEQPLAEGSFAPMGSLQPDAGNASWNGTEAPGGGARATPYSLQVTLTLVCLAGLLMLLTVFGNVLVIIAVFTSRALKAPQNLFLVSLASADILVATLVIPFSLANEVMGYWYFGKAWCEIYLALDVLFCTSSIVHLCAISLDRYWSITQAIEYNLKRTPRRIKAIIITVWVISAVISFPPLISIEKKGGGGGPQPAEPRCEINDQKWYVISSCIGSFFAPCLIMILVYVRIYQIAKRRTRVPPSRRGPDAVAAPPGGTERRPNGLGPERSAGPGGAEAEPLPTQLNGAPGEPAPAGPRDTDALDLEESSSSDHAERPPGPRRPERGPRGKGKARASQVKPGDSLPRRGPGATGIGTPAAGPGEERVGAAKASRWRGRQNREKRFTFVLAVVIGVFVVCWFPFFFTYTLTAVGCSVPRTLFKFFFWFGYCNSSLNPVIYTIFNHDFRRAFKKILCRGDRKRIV
# [3] = molecular target: histamine H1 (Homo sapiens, UniProt P35367); test: Test against other receptors: histamine H1
# histamine H1, sequence (P35367 whole entry): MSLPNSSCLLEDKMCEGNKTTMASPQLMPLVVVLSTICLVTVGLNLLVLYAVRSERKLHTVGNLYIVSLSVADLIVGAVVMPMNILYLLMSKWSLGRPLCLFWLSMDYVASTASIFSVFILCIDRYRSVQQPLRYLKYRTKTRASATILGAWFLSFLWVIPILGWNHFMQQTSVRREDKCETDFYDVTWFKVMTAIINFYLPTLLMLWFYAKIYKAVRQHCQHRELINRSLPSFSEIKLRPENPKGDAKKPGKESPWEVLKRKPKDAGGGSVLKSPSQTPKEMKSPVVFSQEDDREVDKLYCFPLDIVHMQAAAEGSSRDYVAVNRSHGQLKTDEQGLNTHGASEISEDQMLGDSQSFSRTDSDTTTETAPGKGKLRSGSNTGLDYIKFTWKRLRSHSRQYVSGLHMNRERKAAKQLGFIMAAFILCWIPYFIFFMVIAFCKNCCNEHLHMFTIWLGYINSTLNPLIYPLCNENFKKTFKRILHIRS
smiles,measurement,setting,value
"CCCCC1CCN(CCCC(=O)c2ccccc2C)CC1 [Compound A, 4-n-Butyl-1-[4-(2-methylphenyl)-4-oxo-1-butyl]piperidine]",agonist activity,[1],no significant activity
same,agonist activity,[2],no significant activity
same,inhibition of receptor responses (antagonist experiments),[2],did not inhibit
same,agonist activity,[3],no significant activity
